This note sets out measurements from PubChem BioAssay AID190 (DTP/NCI, 2004).

Where “and” joins values, the source holds several entries; their conditions need not be identical. Identical values can stand only once. Toxic doses and inconclusive results are not listed.

The subject of the assay is AKR/Lw mice, AKR lymphoma ip, median survival T/C. In words: NCI In Vivo Anticancer Drug Screen. Data for tumor model Lymphoma AKR (Transplanted) (intraperitoneal) in AKR/Lw mice. The note with it: endpoint: median survival time, higher = longer survival. As to the method:
The antitumor activity of compounds was measured in mice bearing transplantable tumors. Survival or tumor size were measured and the results are expressed as the measurement made in the treated group (T) divided by the measurement made in the vehicle treated control group (C). The tumor model used in this assay is Lymphoma AKR (Transplanted) (intraperitoneal) in AKR/Lw mice

Where [1] appears, read: dose: 100.0 mg/kg/injection, schedule: Q01DX001 (ip), vehicle: Klucel (hydroxypropylcellulose) (HPC).
Where [2] appears, read: dose: 100.0 mg/kg/injection, schedule: Q04DX003 (ip), vehicle: Klucel (hydroxypropylcellulose) (HPC).
Setting [3] is: dose: 200.0 mg/kg/injection, schedule: Q01DX001 (ip), vehicle: Klucel (hydroxypropylcellulose) (HPC).
[4] abbreviates: dose: 200.0 mg/kg/injection, schedule: Q04DX003 (ip), vehicle: Klucel (hydroxypropylcellulose) (HPC).
Where [5] appears, read: dose: 100.0 mg/kg/injection, schedule: Q01DX001 (ip), vehicle: saline.
Setting [6] is: dose: 200.0 mg/kg/injection, schedule: Q01DX001 (ip), vehicle: saline.
The mark [7] stands for this setting: dose: 5.0 mg/kg/injection, schedule: Q01DX009 (ip), vehicle: Klucel (hydroxypropylcellulose) (HPC).

As for `C=CCN(CC=C)c1ccc(N(CC)CC)cc1`, the T/C is 100 % of control (dose: 25.0 mg/kg/injection, schedule: Q04DX003 (ip), vehicle: Klucel (hydroxypropylcellulose) (HPC)); 94 % of control (dose: 50.0 mg/kg/injection, schedule: Q04DX003 (ip), vehicle: Klucel (hydroxypropylcellulose) (HPC)); 96 % of control under setting [1]; 97 % of control under setting [2]; 92 % of control under setting [3]; 100 % of control under setting [4].
In the case of `O=C1CCSCCN1`, the T/C under setting [5] was 95 % of control and the T/C under setting [6] was 86 % of control.
For the compound `CC(=O)N1C(=O)C2(c3ccccc31)c1cccc3c1C(=C1C(=O)OC(=O)C12)C(=O)N3C(C)=O` (configuration not stated), the T/C runs as follows: under setting [6], 86 % of control; (dose: 400.0 mg/kg/injection, schedule: Q01DX001 (ip), vehicle: saline) 91 % of control.
Turning to `NC(Cc1ccc([N+](=O)[O-])cc1)C(=O)O` (configuration not stated), the T/C runs as follows: under setting [5], 94 % of control; under setting [6], 96 % of control.
On to `NC(=O)NO`, for which the T/C is, setting by setting: (dose: 15.6 mg/kg/injection, schedule: Q06HX012 (ip), vehicle: saline) 93 % of control; (dose: 15.6 mg/kg/injection, schedule: Q06HX016 (ip), vehicle: saline) 96 % of control; (dose: 25.0 mg/kg/injection, schedule: Q06HX012 (ip), vehicle: saline) 100 % of control; (dose: 31.25 mg/kg/injection, schedule: Q06HX012 (ip), vehicle: saline) 96 % of control; (dose: 50.0 mg/kg/injection, schedule: Q01DX009 (ip), vehicle: saline) 94 % of control; (dose: 50.0 mg/kg/injection, schedule: Q06HX012 (ip), vehicle: saline) 100 % of control. The T/C (dose: 62.5 mg/kg/injection, schedule: Q06HX004 (ip), vehicle: saline) was 92 % of control and 100 % of control; the T/C (dose: 62.5 mg/kg/injection, schedule: Q06HX008 (ip), vehicle: saline) was 93 % of control; the T/C (dose: 62.5 mg/kg/injection, schedule: Q06HX012 (ip), vehicle: saline) is 93 % of control; the T/C (dose: 62.5 mg/kg/injection, schedule: Q06HX016 (ip), vehicle: saline) was 100 % of control; the T/C (dose: 75.0 mg/kg/injection, schedule: Q06HX012 (ip), vehicle: saline) was 96 % of control; the T/C (dose: 100.0 mg/kg/injection, schedule: Q06HX008 (ip), vehicle: saline) was 92 % of control. Further, the T/C (dose: 100.0 mg/kg/injection, schedule: Q06HX012 (ip), vehicle: saline) is 88 % of control.
On to `CCOC(=O)/C(C(C)=O)=C(/O)c1ccc(OC(F)(F)C(F)Cl)cc1OC(F)(F)C(F)Cl.CCOC(=O)/C(C(C)=O)=C(/O)c1ccc(OC(F)(F)C(F)Cl)cc1OC(F)(F)C(F)Cl.[Cu]` (configuration not stated), for which the T/C runs as follows: under setting [1], 100 % of control; under setting [3], 90 % of control.
As to `O=C(c1ccccc1)C1CCC1`, the T/C by setting is: under setting [1], 95 % of control; under setting [3], 95 % of control.
Consider `CS(=O)(=O)OCCCCOS(C)(=O)=O`, for which the T/C is 100 % of control (dose: 0.5 mg/kg/injection, schedule: Q01DX009 (ip), vehicle: Klucel (hydroxypropylcellulose) (HPC)); 112 % of control (dose: 0.75 mg/kg/injection, schedule: Q01DX009 (ip), vehicle: saline); 120 % of control (dose: 1.0 mg/kg/injection, schedule: Q01DX009 (ip), vehicle: Klucel (hydroxypropylcellulose) (HPC)); 116 % of control (dose: 1.5 mg/kg/injection, schedule: Q01DX009 (ip), vehicle: saline); 120 % of control (dose: 2.0 mg/kg/injection, schedule: Q01DX009 (ip), vehicle: Klucel (hydroxypropylcellulose) (HPC)); 112 % of control (dose: 2.5 mg/kg/injection, schedule: Q01DX009 (ip), vehicle: saline). Moreover, the T/C (dose: 3.0 mg/kg/injection, schedule: Q01DX009 (ip), vehicle: saline) is 108 % of control; the T/C (dose: 3.75 mg/kg/injection, schedule: Q01DX009 (ip), vehicle: saline) is 100 % of control and 116 % of control; the T/C (dose: 4.0 mg/kg/injection, schedule: Q01DX009 (ip), vehicle: Klucel (hydroxypropylcellulose) (HPC)) is 107 % of control; the T/C under setting [7] is 102 % of control; the T/C (dose: 5.0 mg/kg/injection, schedule: Q01DX009 (ip), vehicle: saline) is 96 % of control; the T/C (dose: 7.5 mg/kg/injection, schedule: Q01DX009 (ip), vehicle: saline) was 86 % of control and 89 % of control. In addition, the T/C runs as follows: (dose: 8.0 mg/kg/injection, schedule: Q01DX009 (ip), vehicle: Klucel (hydroxypropylcellulose) (HPC)) 100 % of control; (dose: 8.0 mg/kg/injection, schedule: Q01DX009 (ip), vehicle: saline) 115 % of control; (dose: 10.0 mg/kg/injection, schedule: Q01DX009 (ip), vehicle: saline) 104 % of control; (dose: 10.0 mg/kg/injection, schedule: Q04DX003 (ip), vehicle: Klucel (hydroxypropylcellulose) (HPC)) 104 % of control; (dose: 12.5 mg/kg/injection, schedule: Q01DX001 (ip), vehicle: saline) 102 % of control and 110 % of control (2×); (dose: 12.5 mg/kg/injection, schedule: Q01DX009 (ip), vehicle: Klucel (hydroxypropylcellulose) (HPC)) 89 % of control. For the same compound, the T/C (dose: 12.5 mg/kg/injection, schedule: Q01DX009 (ip), vehicle: saline) was 87 % of control; the T/C (dose: 15.0 mg/kg/injection, schedule: Q01DX009 (ip), vehicle: saline) is 105 % of control; the T/C (dose: 16.0 mg/kg/injection, schedule: Q01DX009 (ip), vehicle: saline) was 103 % of control; the T/C (dose: 20.0 mg/kg/injection, schedule: Q01DX009 (ip), vehicle: saline) was 113 % of control; the T/C (dose: 20.0 mg/kg/injection, schedule: Q04DX003 (ip), vehicle: Klucel (hydroxypropylcellulose) (HPC)) is 91 % of control; the T/C (dose: 25.0 mg/kg/injection, schedule: Q01DX001 (ip), vehicle: saline) was 97 % of control and 100 % of control and 114 % of control. Besides, the T/C (dose: 25.0 mg/kg/injection, schedule: Q01DX009 (ip), vehicle: Klucel (hydroxypropylcellulose) (HPC)) is 89 % of control; the T/C (dose: 25.0 mg/kg/injection, schedule: Q01DX009 (ip), vehicle: saline) is 89 % of control; the T/C (dose: 25.0 mg/kg/injection, schedule: Q04DX003 (ip), vehicle: other) is 108 % of control; the T/C (dose: 25.0 mg/kg/injection, schedule: Q04DX003 (ip), vehicle: saline) is 101 % of control; the T/C (dose: 30.0 mg/kg/injection, schedule: Q01DX009 (ip), vehicle: saline) was 104 % of control; the T/C (dose: 37.5 mg/kg/injection, schedule: Q04DX003 (ip), vehicle: saline) was 90 % of control. The T/C is 100 % of control (dose: 40.0 mg/kg/injection, schedule: Q04DX003 (ip), vehicle: Klucel (hydroxypropylcellulose) (HPC)); 89 % of control (dose: 50.0 mg/kg/injection, schedule: Q01DX009 (ip), vehicle: Klucel (hydroxypropylcellulose) (HPC)); 104 % of control (dose: 50.0 mg/kg/injection, schedule: Q04DX003 (ip), vehicle: other); 109 % of control (dose: 50.0 mg/kg/injection, schedule: Q04DX003 (ip), vehicle: saline); 97 % of control and 105 % of control under setting [5]; 100 % of control under setting [2]. The T/C (dose: 100.0 mg/kg/injection, schedule: Q04DX003 (ip), vehicle: other) is 91 % of control; the T/C (dose: 100.0 mg/kg/injection, schedule: Q04DX003 (ip), vehicle: saline) is 92 % of control; the T/C under setting [6] is 97 % of control; the T/C under setting [4] is 105 % of control; the T/C (dose: 400.0 mg/kg/injection, schedule: Q04DX003 (ip), vehicle: Klucel (hydroxypropylcellulose) (HPC)) is 100 % of control; the T/C (dose: 600.0 mg/kg/injection, schedule: Q01DX001 (ip), vehicle: Klucel (hydroxypropylcellulose) (HPC)) was 106 % of control.
On to `OC1(C#CC2(O)c3ccccc3-c3ccccc32)c2ccccc2-c2ccccc21`, for which the T/C was 105 % of control under setting [1]; 108 % of control under setting [3]; 102 % of control (dose: 400.0 mg/kg/injection, schedule: Q01DX001 (ip), vehicle: Klucel (hydroxypropylcellulose) (HPC)).
`CC[CH](C)[Hg][c]1cccc2ccccc12` (configuration not stated): the T/C by setting is: under setting [1], 91 % of control; under setting [3], 86 % of control.
Turning to `COc1cc([C@@H]2c3cc4c(cc3[C@@H](OC3OC5COC(C)OC5C(O)C3O)[C@H]3COC(=O)[C@H]23)OCO4)cc(OC)c1O` (some centres not stated), the T/C under setting [7] is 321 % of control.
